In patent US9365572B2, “PI3K and/or mTOR inhibitor” (XUANZHU PHARMA CO., LTD., priority 2012, dated 2016):

Key:
IRAK4 = IRAK4 (Homo sapiens (Human), UniProt Q9NWZ3); assay: Kinase selectivity, Mobility shift assay; assay type: biochemical
Method: (§1) Object: In this assay, the inhibitory activity of the test substance on the kinases listed in Table 3 was determined, and therefore the selectivity of the present compound was determined.
(§2) Except for the BRAF V600E kinase in Table 3, the Mobility shift assay was used for other kinases.
(§3) 1. Preparation of Agents:
(§4) • 1.1 1-fold kinase buffer without MnCl2: 50 mM HEPES, pH 7.5, 0.0015% Brij-35, 10 mM MgCl2, 2 mM DTT. • 1.2 1-fold kinase buffer with MnCl2: 50 mM HEPES, pH 7.5, 0.0015% Brij-35, 10 mM MgCl2, 10 mM MnCl2, 2 mM DTT. • 1.3 Termination solution: 100 mM HEPES, pH 7.5, 0.0015% Brij-35, 0.2% Coating Reagent#3, 50 mM EDTA. • 1.4 2.5-fold kinase solution: The kinase was added to the 1-fold kinase buffer to form a 2.5-fold kinase solution. • 1.5 2.5-fold substrate solution: FAM fluorescence-labelled polypeptide and ATP were added to the 1-fold kinase buffer to form a 2.5-fold substrate solution. 2. Preparation of 5-fold compound
(§5) The final test concentration of the compound was 10 μM at maximum. Firstly, a 50-fold concentration (i.e. 500 μM) was prepared with 100% DMSO. The compound was diluted with 100% DMSO by 5 folds at 5 concentrations (successively 500 μM, 100 μM, 20 μM, 4 μM, and 0.8 μM). After diluting with 1-fold kinase buffer by 10 folds, 5 μl of the samples were transferred to a 384-well reaction plate. Two negative control wells and two positive control wells were set at each line respectively. Replication was made in a 96-well plate in five concentrations of 5-fold compound. 10% DMSO was added to the positive control well, and 5 μl of EDTA (250 mM) was added to the negative control well.
(§6) • 3.1 To the 384-well reaction plate was added 5-fold compound dissolved in 10% DMSO at 5 μl/well. • 3.2 To the 384-well reaction plate was added 2.5-fold kinase solution at 10 μl/well. […] 4. […] 2. […] 3. […] 4.

TAOK2 = TAOK2 (Homo sapiens (Human), UniProt Q9UL54); assay: Kinase selectivity, Mobility shift assay; assay type: biochemical
TAOK2, sequence (Q9UL54 whole entry, species assumed): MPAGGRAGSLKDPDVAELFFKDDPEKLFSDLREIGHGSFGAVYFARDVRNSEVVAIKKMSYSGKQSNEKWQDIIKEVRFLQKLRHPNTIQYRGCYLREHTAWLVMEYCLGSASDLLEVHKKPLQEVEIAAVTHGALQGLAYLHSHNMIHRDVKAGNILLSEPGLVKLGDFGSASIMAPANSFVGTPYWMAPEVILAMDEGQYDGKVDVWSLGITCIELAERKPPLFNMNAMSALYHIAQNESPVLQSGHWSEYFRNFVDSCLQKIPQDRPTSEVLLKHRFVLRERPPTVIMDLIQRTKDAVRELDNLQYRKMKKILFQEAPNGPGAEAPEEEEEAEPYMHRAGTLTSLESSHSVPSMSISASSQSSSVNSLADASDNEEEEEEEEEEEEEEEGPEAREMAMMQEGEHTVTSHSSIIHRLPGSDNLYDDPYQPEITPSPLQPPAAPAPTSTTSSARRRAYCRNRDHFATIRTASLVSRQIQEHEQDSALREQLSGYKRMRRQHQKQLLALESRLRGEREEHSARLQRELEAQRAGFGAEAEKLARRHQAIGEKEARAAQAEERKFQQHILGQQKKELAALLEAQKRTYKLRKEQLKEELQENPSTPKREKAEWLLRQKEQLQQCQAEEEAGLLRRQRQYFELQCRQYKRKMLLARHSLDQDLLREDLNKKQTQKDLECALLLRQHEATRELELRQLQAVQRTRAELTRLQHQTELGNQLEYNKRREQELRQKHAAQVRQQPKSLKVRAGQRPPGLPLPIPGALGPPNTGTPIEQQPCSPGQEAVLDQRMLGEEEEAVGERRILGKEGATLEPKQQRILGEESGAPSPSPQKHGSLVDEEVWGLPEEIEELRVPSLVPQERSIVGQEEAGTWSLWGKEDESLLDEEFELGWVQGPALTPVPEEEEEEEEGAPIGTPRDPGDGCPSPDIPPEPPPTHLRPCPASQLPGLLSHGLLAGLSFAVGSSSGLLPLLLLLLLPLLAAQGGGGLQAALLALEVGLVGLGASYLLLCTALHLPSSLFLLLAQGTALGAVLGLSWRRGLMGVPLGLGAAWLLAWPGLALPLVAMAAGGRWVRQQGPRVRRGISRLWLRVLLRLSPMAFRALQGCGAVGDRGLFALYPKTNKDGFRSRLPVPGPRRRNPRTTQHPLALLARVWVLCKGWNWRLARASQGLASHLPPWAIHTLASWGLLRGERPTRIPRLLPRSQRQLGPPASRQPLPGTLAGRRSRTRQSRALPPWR
Method: as §1, §2, §3, §4, §5, §6

LCK = LCK (Homo sapiens (Human), UniProt P06239); assay: Kinase selectivity, Mobility shift assay; assay type: biochemical
LCK, sequence (P06239 whole entry, species assumed): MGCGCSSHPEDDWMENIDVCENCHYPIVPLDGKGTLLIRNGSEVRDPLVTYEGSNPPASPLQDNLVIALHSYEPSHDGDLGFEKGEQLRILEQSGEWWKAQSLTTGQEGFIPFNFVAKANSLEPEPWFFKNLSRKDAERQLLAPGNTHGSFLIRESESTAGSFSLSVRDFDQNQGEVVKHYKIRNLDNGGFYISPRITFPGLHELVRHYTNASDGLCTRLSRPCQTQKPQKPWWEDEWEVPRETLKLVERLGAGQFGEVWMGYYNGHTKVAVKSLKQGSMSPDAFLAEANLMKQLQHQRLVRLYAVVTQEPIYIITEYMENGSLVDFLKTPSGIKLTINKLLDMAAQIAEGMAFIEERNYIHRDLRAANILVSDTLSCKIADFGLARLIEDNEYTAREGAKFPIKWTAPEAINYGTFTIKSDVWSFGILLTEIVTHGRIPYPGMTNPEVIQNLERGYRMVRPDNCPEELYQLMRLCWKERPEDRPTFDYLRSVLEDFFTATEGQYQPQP
Method: as §1, §2, §3, §4, §5, §6

FLT3 = FLT3 (Homo sapiens (Human), UniProt P36888); assay: Kinase selectivity, Mobility shift assay; assay type: biochemical
FLT3, sequence (P36888 27-993, species assumed): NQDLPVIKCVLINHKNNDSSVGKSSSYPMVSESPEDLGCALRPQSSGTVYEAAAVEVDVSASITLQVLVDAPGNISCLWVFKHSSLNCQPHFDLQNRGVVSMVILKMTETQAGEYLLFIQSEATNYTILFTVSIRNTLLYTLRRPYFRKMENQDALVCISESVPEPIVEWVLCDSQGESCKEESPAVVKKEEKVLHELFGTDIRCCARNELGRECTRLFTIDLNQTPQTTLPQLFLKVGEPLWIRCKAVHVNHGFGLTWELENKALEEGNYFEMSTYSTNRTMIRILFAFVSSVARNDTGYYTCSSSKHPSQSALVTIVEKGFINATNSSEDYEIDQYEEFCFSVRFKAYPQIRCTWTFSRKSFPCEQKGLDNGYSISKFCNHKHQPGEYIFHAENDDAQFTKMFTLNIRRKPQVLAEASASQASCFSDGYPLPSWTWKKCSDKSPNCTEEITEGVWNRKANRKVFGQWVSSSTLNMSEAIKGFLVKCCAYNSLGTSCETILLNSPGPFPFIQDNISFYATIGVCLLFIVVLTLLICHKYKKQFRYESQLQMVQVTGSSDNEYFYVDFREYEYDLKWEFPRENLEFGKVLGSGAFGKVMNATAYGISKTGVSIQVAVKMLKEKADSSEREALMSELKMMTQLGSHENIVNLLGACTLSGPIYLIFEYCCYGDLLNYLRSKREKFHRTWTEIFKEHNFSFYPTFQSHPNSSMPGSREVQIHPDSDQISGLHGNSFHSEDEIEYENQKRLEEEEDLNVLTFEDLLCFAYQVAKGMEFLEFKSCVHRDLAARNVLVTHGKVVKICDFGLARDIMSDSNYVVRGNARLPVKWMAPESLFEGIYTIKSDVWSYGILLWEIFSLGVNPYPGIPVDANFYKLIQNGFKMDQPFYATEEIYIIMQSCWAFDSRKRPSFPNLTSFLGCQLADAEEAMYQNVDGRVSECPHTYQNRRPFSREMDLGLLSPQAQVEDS
Method: as §1, §2, §3, §4, §5, §6

Adenosine A2A = Adenosine A2A (Homo sapiens (Human), UniProt P29274); assay: Radioligand binding assay No. 200610; settings: test substance 10 μM, read-out: Inhibitory rate (%), Adenosine A2A
Adenosine A2A, sequence (P29274 whole entry): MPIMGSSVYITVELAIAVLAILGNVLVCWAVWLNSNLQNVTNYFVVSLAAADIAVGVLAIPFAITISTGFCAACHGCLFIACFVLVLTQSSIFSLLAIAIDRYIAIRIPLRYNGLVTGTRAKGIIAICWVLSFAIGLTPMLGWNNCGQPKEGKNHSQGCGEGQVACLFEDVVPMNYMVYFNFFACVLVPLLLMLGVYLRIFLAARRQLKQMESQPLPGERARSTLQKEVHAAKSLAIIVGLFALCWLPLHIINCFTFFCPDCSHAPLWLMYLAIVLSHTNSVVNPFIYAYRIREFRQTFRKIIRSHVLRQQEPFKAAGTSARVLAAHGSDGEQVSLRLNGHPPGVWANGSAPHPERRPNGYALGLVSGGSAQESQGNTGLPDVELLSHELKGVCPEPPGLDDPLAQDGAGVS

[1] = system: Calcium Channel L-Type, Dihydropyridine; assay: Radioligand binding assay No. 214600; settings: test substance 10 μM; rat
[2] = molecular target: Leukotriene, Cysteinyl CysLT1 (Homo sapiens (Human), UniProt Q9Y271); assay: Radioligand binding assay No. 250460; settings: test substance 10 μM, read-out: Inhibitory rate (%), Leukotriene, Cysteinyl CysLT1
Leukotriene, Cysteinyl CysLT1, sequence (Q9Y271 whole entry): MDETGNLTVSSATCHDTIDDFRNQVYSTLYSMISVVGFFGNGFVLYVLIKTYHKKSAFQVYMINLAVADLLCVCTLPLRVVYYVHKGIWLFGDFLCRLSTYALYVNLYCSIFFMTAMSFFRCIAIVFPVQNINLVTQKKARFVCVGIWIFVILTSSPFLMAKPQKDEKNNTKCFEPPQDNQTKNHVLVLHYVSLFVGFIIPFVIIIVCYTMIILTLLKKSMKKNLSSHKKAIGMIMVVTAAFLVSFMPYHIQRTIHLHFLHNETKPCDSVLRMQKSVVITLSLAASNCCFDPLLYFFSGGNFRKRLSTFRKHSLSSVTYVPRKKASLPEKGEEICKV

[3] = molecular target: Platelet Activating Factor (PAF) (Homo sapiens (Human), UniProt P25105); assay: Radioligand binding assay No. 265010; settings: test substance 10 μM, read-out: Inhibitory rate (%), Platelet Activating Factor (PAF)
Platelet Activating Factor (PAF), sequence (P25105 whole entry): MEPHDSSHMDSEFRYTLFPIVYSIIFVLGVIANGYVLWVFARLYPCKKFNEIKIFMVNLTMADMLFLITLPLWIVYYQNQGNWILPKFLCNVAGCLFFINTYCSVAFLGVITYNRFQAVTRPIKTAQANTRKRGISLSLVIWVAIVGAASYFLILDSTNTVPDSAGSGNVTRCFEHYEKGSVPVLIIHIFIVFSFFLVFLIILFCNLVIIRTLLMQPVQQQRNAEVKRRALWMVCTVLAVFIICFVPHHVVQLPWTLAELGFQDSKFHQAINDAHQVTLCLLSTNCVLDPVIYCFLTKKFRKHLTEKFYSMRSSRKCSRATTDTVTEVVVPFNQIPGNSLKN

IRAK4, sequence (Q9NWZ3 whole entry, species assumed): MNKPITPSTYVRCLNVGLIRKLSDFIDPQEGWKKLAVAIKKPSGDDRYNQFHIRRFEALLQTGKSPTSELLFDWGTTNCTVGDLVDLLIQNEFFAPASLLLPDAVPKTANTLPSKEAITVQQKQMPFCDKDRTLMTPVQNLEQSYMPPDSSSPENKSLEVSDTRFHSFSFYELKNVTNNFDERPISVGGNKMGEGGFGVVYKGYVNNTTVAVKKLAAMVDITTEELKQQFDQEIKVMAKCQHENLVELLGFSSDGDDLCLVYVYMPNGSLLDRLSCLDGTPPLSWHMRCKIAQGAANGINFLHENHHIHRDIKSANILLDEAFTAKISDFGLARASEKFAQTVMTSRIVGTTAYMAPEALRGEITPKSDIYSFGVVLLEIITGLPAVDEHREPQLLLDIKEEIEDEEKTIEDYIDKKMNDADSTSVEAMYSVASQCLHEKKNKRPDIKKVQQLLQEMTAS

Nc1ccc(-c2ccc3ncc4c(=O)[nH]c(=O)n(-c5cccc(C(F)(F)F)c5)c4c3n2)cn1 [Compound 5, 9-(6-aminopyridin-3-yl)-1-(3-(trifluoromethyl)phenyl)pyrimido[5,4-c][1,5]naphthyridine-2,4(1H,3H)-dione] was tested, and the IC50 (IRAK4) was > 10000 nM, the IC50 (TAOK2) was > 10000 nM and the IC50 (LCK) was 1130 nM. The IC50 (FLT3) was 6250 nM, the inhibition at 10 µM (Adenosine A2A) was 0% and the “Inhibitory rate (%), Calcium Channel L-Type, Dihydropyridine” value [1] was 56%. For the same compound, the inhibition at 10 µM [2] was -1% and the inhibition at 10 µM [3] was 20%.
